Test results from BigSolDB 2.1.

| Structure (SMILES) | solubility (mole fraction) (in ethanol, 288.15 K) | solubility (mole fraction) (in ethanol, 298.15 K) | solubility (mole fraction) (in ethanol, 308.15 K) | solubility (mole fraction) (in ethanol, 318.15 K) | solubility (mole fraction) (in isopropanol, 288.15 K) | solubility (mole fraction) (in isopropanol, 298.15 K) | solubility (mole fraction) (in isopropanol, 308.15 K) | solubility (mole fraction) (in isopropanol, 318.15 K) | solubility (mole fraction) (in n-propanol, 288.15 K) | solubility (mole fraction) (in n-propanol, 298.15 K) | solubility (mole fraction) (in n-propanol, 308.15 K) | solubility (mole fraction) (in n-propanol, 318.15 K) |
| --- | --- | --- | --- | --- | --- | --- | --- | --- | --- | --- | --- | --- |
| CCCCOC(=O)c1ccc(O)cc1 | 0.287 | 0.361 | 0.433 | 0.524 | 0.293 | 0.339 | 0.415 | 0.512 | 0.289 | 0.352 | 0.448 | 0.522 |
| CCOC(=O)c1ccc(O)cc1 | 0.123 | 0.163 | 0.201 | 0.257 | 0.157 | 0.182 | 0.239 | 0.282 | 0.127 | 0.174 | 0.214 | 0.251 |
